# Assays:
# Assay type in all cases: cell-based, mouse
# [1] = tested on: HLA-DR4/huCD4 (DRB1*0401) Tg mice, CD8-depleted splenocytes
# [2] = tested on: HLA-A2.1 (HLA-A*0201) Tg mice, CD4-depleted splenocytes
# [3] = tested on: HLA-DR3 (DRB1*0301) Tg mice, CD8-depleted splenocytes
# [4] = tested on: HLA-DR2 (DRB1*1501) Tg mice, CD8-depleted splenocytes
Sequence,"T cell activation of HLA transgenic mice (SFC/10^6) IFN-γ ELISpot, DR4 [1]","T cell activation of HLA transgenic mice (SFC/10^6) IFN-γ ELISpot, A2 [2]","T cell activation of HLA transgenic mice (SFC/10^6) IFN-γ ELISpot, DR3 [3]",other results
AEVRSYCYLATVSDLSTK [E 54-71],205 ± 56 SFC/10^6,,,
AHWTEARIMLDNINM [NS3 487-501],,308 ± 188 SFC/10^6,431 ± 112 SFC/10^6,
ALLTPGLRCLNLDVYRIL [NS2a 160-177],,63 ± 18 SFC/10^6,59 ± 3 SFC/10^6,
ARIMLDNINMPNGLIAQF [NS3 492-509],,,216 ± 42 SFC/10^6,
CLNLDVYRILLLMVGI [NS2a 168-183],,,231 ± 16 SFC/10^6,"T cell activation of HLA transgenic mice (SFC/10^6) IFN-γ ELISpot, DR2 [4]: 556 ± 33 SFC/10^6"
CYGGHTNEDDSNFAHW [NS3 474-489],,92 ± 18 SFC/10^6,83 ± 23 SFC/10^6,
DRRWCFDGPRTNTIL [NS3 560-574],,,225 ± 10 SFC/10^6,
DTGCAIDISRQELRCGSGV [NS1 1-19],,,572 ± 20 SFC/10^6,
DTPSPKEYKKGDTTTGVY [NS3 6-23],43 ± 6 SFC/10^6,,,
EGRVEIDFDYCPGTTVTL [NS1 270-287],54 ± 6 SFC/10^6,,,
EKLQLKGTTYGVCSKAFK [E 293-310],47 ± 5 SFC/10^6,,,
EKVYTMDGEYRLRGEERK [NS3 515-532],,140 ± 24 SFC/10^6,,"T cell activation of HLA transgenic mice (SFC/10^6) IFN-γ ELISpot, DR2 [4]: 95 ± 27 SFC/10^6"
EQQINHHWHKSGSSIGKA [E 390-407],,,50 ± 6 SFC/10^6,
EVITKLGERKILRPRWI [NS3 581-597],52 ± 11 SFC/10^6,,,
EYRLRGEERKNFLELLR [NS3 523-539],,57 ± 11 SFC/10^6,,"T cell activation of HLA transgenic mice (SFC/10^6) IFN-γ ELISpot, DR2 [4]: 160 ± 48 SFC/10^6"
FAESNSGGDVVHLALMA [NS2a 65-81],60 ± 13 SFC/10^6,,,
FDGPRTNTILEDNNEVEV [NS3 565-582],,,59 ± 3 SFC/10^6,
FRSLFGGMSWITQGLLGA [E 450-467],,205 ± 145 SFC/10^6,104 ± 21 SFC/10^6,"T cell activation of HLA transgenic mice (SFC/10^6) IFN-γ ELISpot, DR2 [4]: 261 ± 13 SFC/10^6"
GAGVMVEGVFHTLWHTTK [NS3 37-54],,,368 ± 66 SFC/10^6,"T cell activation of HLA transgenic mice (SFC/10^6) IFN-γ ELISpot, DR2 [4]: 149 ± 13 SFC/10^6"
GCWGQVTLTVTVTAATLL [NS4b 101-118],134 ± 8 SFC/10^6,,,
GQVVTYALNTFTNLAVQL [NS5 605-622],240 ± 76 SFC/10^6,,,"T cell activation of HLA transgenic mice (SFC/10^6) IFN-γ ELISpot, DR2 [4]: 556 ± 27 SFC/10^6"
GRTILKENIKYEVAIFVH [E 127-144],,,198 ± 21 SFC/10^6,"T cell activation of HLA transgenic mice (SFC/10^6) IFN-γ ELISpot, DR2 [4]: 120 ± 1 SFC/10^6"
GVFIHNDVEAWMDRYKYY [NS1 18-35],,,52 ± 8 SFC/10^6,
GWPATEVMTAVGLMFAIV [NS2b 1-18],104 ± 18 SFC/10^6,,,

Sequence,"T cell activation of HLA transgenic mice (SFC/10^6) IFN-γ ELISpot, DR4 [1]","T cell activation of HLA transgenic mice (SFC/10^6) IFN-γ ELISpot, A2 [2]","T cell activation of HLA transgenic mice (SFC/10^6) IFN-γ ELISpot, DR3 [3]",other results
GWYDWQQVPFCSNHFTEL [NS5 704-721],65 ± 27 SFC/10^6,,,
HFMGKTWEALDTMYVVA [NS4a 15-31],187 ± 20 SFC/10^6,,,"T cell activation of HLA transgenic mice (SFC/10^6) IFN-γ ELISpot, DR2 [4]: 278 ± 26 SFC/10^6"
HKSGSSIGKAFTTTLKGA [E 398-415],,,88 ± 1 SFC/10^6,"T cell activation of HLA transgenic mice (SFC/10^6) IFN-γ ELISpot, DR2 [4]: 168 ± 18 SFC/10^6"
IKYEVAIFVHGPTTVESH [E 135-152],,,86 ± 13 SFC/10^6,
IRYQTSAVPREHNGNEIV [NS3 241-258],,127 ± 18 SFC/10^6,,
IVVEPGKNVKNVQTKPGV [NS3 98-115],,145 ± 25 SFC/10^6,,
IVVGRGEQQINHHWHK [E 384-399],,,87 ± 16 SFC/10^6,
KVELGEAAAIFMTATPPG [NS3 304-321],,94 ± 22 SFC/10^6,,
KVLIELEPPFGDSYIVV [E 370-386],148 ± 10 SFC/10^6,,,
LATVSDLSTKAACPTM [E 62-77],47 ± 4 SFC/10^6,465 ± 343 SFC/10^6,,
LAVGGVLLFLSVNVHA [E 486-501],,323 ± 173 SFC/10^6,244 ± 16 SFC/10^6,"T cell activation of HLA transgenic mice (SFC/10^6) IFN-γ ELISpot, DR2 [4]: 214 ± 27 SFC/10^6"
LGALLLWMGINARDRSIA [E 465-482],,310 ± 186 SFC/10^6,330 ± 91 SFC/10^6,"T cell activation of HLA transgenic mice (SFC/10^6) IFN-γ ELISpot, DR2 [4]: 490 ± 64 SFC/10^6"
LQHKWNGQDEVQMIVV [NS3 85-100],,72 ± 9 SFC/10^6,,
LQTEIPDRAWNSGYEWI [NS3 336-352],,167 ± 35 SFC/10^6,,
LSTKAACPTMGEAHNDKR [E 68-85],,372 ± 242 SFC/10^6,,
LVKTESWILRNPGYALVA [prM 121-138],56 ± 6 SFC/10^6,,,"T cell activation of HLA transgenic mice (SFC/10^6) IFN-γ ELISpot, DR2 [4]: 130 ± 23 SFC/10^6"
LVQSYGWNIVTMKSGVDV [NS5 115-132],,,79 ± 23 SFC/10^6,
MLRKKQITVLDLHPGAGK [NS3 183-200],,62 ± 24 SFC/10^6,,"T cell activation of HLA transgenic mice (SFC/10^6) IFN-γ ELISpot, DR2 [4]: 55 ± 2 SFC/10^6"
NEDDSNFAHWTEARIML [NS3 480-496],,,121 ± 1 SFC/10^6,
NMPNGLIAQFYQPEREKV [NS3 500-517],,,145 ± 49 SFC/10^6,"T cell activation of HLA transgenic mice (SFC/10^6) IFN-γ ELISpot, DR2 [4]: 51 ± 10 SFC/10^6"
NTFTNLAVQLVRMMEGEGV [NS5 613-631],119 ± 21 SFC/10^6,,,
NWVPTGRTTWSIHAGGEW [NS5 791-808],78 ± 17 SFC/10^6,,,
PATAWSLYAVTTAVLTPL [NS4b 38-55],,,67 ± 13 SFC/10^6,"T cell activation of HLA transgenic mice (SFC/10^6) IFN-γ ELISpot, DR2 [4]: 57 ± 11 SFC/10^6"
PFVDVGVSALLLAAGCW [NS4b 87-103],59 ± 14 SFC/10^6,,,

Sequence,"T cell activation of HLA transgenic mice (SFC/10^6) IFN-γ ELISpot, DR4 [1]","T cell activation of HLA transgenic mice (SFC/10^6) IFN-γ ELISpot, A2 [2]","T cell activation of HLA transgenic mice (SFC/10^6) IFN-γ ELISpot, DR3 [3]",other results
PIVDKNGDVIGLYGNGVI [NS3 138-155],,159 ± 10 SFC/10^6,,
PQIIKEAINRRLRTAVLA [NS3 206-223],,108 ± 22 SFC/10^6,,"T cell activation of HLA transgenic mice (SFC/10^6) IFN-γ ELISpot, DR2 [4]: 323 ± 21 SFC/10^6"
RAWNSGYEWITEYTGKTV [NS3 343-360],,55 ± 21 SFC/10^6,,
RGWGNGCGLFGKGSI [E 99-113],,,79 ± 7 SFC/10^6,
RLNDTWKLERAVLGEVK [NS1 205-221],61 ± 15 SFC/10^6,,,
RQELRCGSGVFIHNDVEA [NS1 10-27],63 ± 8 SFC/10^6,,,
SGCWYGMEIRPQRHDEK [NS1 327-343],78 ± 4 SFC/10^6,,,
SQIGLIEVLGKMPEHFM [NS4a 1-17],,,132 ± 17 SFC/10^6,
THTLWGDGILESDLIIPV [NS1 228-245],,84 ± 47 SFC/10^6,,
TLTHRLMSPHRVPNYNLF [NS3 265-282],,150 ± 30 SFC/10^6,,"T cell activation of HLA transgenic mice (SFC/10^6) IFN-γ ELISpot, DR2 [4]: 169 ± 16 SFC/10^6"
TVWFVPSVKMGNEIALCL [NS3 359-376],,75 ± 44 SFC/10^6,,
VAAEMAEALRGLPIRY [NS3 228-243],46 ± 9 SFC/10^6,,,
VFHTLWHTTKGAALM [NS3 45-59],,,63 ± 10 SFC/10^6,
VFTSVGKAVHQVFGGAFR [E 434-451],,,79 ± 19 SFC/10^6,"T cell activation of HLA transgenic mice (SFC/10^6) IFN-γ ELISpot, DR2 [4]: 116 ± 5 SFC/10^6"
VHQVFGGAFRSLFGGMSW [E 442-459],,442 ± 313 SFC/10^6,101 ± 15 SFC/10^6,"T cell activation of HLA transgenic mice (SFC/10^6) IFN-γ ELISpot, DR2 [4]: 117 ± 5 SFC/10^6"
VIGLYGNGVIMPNGSYI [NS3 146-162],,58 ± 38 SFC/10^6,,
VLAPTRVVAAEMAEALR [NS3 221-237],,26 ± 4 SFC/10^6,,
VTVNPFVSVATANAKVLI [E 356-373],217 ± 51 SFC/10^6,,,
VVNPSVKTVREAGILITA [NS4b 187-204],83 ± 13 SFC/10^6,,,
VWLAYKVAAAGVSYHDRR [NS3 545-562],,,110 ± 9 SFC/10^6,
WDFGSVGGVFTSVGKAVH [E 426-443],,,83 ± 13 SFC/10^6,
WHTTKGAALMSGEGRL [NS3 50-65],,,191 ± 37 SFC/10^6,
YFHRRDLRLMANAICSAV [NS5 771-788],135 ± 47 SFC/10^6,,,
YISAIVQGERMDEPIPA [NS3 161-177],,56 ± 28 SFC/10^6,,"T cell activation of HLA transgenic mice (SFC/10^6) IFN-γ ELISpot, DR2 [4]: 72 ± 15 SFC/10^6"
